Measurements reported in patent US5331094A, “Purified active somatostatin receptor” (American Cyanamid Company, priority 1992, dated 1994).
Bridge positions count the residues as written; N and C are the ends. Square brackets hold non-standard residues; d marks the D form. Peptide text beside a SMILES is read from it. * marks the point of attachment. Biotin = O=C1N[C@H]2[C@H](CS[C@H]2CCCCC(=O)*)N1; Ahx = NCCCCCC(=O)O

Molecular target: SRIF receptor
Experiment: Competitive radioligand binding assay with [125I]Tyr11-S14 and GH4 C1 membranes
Parameters: species or system rat
Conditions: for IC50: vs [125I]Tyr11-S14, 20 ug GH4 C1 membrane protein, 100,000 cpm radioligand (FIG. 1B)
Experimental: 1. Standard Binding Assays--Binding assays are done in a binding buffer containing 50 mM HEPES (pH 7.4), 0.5% BSA and 5 mM MgCl2. The standard assay for [^125 I]SRIF analog binding to GH4 C1 membranes, done in 96 well microtiter plates (Dynataech Immulon II Removawell plates), is carried out as follows: 1. Radioligand is diluted in binding buffer+ PMSF/Baci to the desired cpm per vol. of 50 μl and then 50 μl aliquots are added to the wells. For non-specific binding samples, 5 μl of 40 μM cold S14 is also added per well. 2. Binding is initiated by adding 150 μl per well of membrane diluted to the desired concentration (10-30 ug membrane protein/well) in binding buffer+ PMSF/Baci. Plates are then covered with Linbro mylar plate sealers (Flow Labs) and placed on a Dynatech Microshaker II and binding is allowed to proceed at room temperature for 1-2 hours. Binding is stopped by centrifuging the plate for 15 minutes at 2,000×g. The supernatants are dumped off and membrane pellets washed once by addition of 200 μl of ice cold binding buffer, brief shaking and recentrifugation. Finally the individual wells are placed in 12×75 mm tubes and counted in an LKB Gammamaster counter (78% efficiency). Specific binding by this method is identical to that measured when free ligand is removed by rapid (3-5 seconds) filtration and washing on polyethyleneimine-coated glass fiber filters.
2. competitive radioligand binding assays with a concentration range of cold ligand vs. [^125 I]SRIF are carried out as described above with one modification. All dilutions of SRIF analogs being assayed are made in 40×PMSF/Baci to a concentration 40× the final concentration in the assay. This gives very consistent results with a wide variety of SRIF structural analogs over a wide range of dilutions. 5 ul samples of peptide are then added per microtiter well. Membranes and radioligand are diluted out in binding buffer without protease inhibitors. Radioligand is added and mixed with cold peptides and then binding is initiated by addition of membranes.
These assays are carried out as described in "Methods: Receptor Binding Methods, 2". […] Therefore the Bio-6C-S14, Bio-12C-S14 and Bio-S28analogs are preferably synthesized. In Bio-S28, amino acid residues 1-14 are considered a spacer since residues 15-28 are equivalent to an S14 analog, having all the necessary structure for high affinity binding. The three spacer-containing biotinyl SRIFs show receptor binding activity similar to that of S14 (FIG. 1B; assays contained 20 ug of GH 4 C1 membrane protein and 100,000 cpm of radioligand). The IC50 s and relative potencies are S14 (0.2 nM)>Bio-S28(0.3 nM) >Bio-6C-S14 (2 nM)>Bio-12C-S14 (2 nM).

| Compound | IC50 | potency relative to S14 in the competitive binding assay (FIG. 1A, 40 ug GH4 C1 membrane protein, 85,000 cpm radioligand) |
| --- | --- | --- |
| CC(C)C[C@H](NC(=O)[C@H](C)NC(=O)[C@@H]1CCCN1C(=O)[C@H](CC(N)=O)NC(=O)[C@H](CO)NC(=O)[C@H](CC(N)=O)NC(=O)[C@H](C)NC(=O)[C@H](CO)NC(=O)CCCC[C@@H]1SC[C@@H]2NC(=O)N[C@@H]21)C(=O)N[C@@H](C)C(=O)N1CCC[C@H]1C(=O)N[C@@H](CCCNC(=N)N)C(=O)N[C@@H](CCC(=O)O)C(=O)N[C@@H](CCCNC(=N)N)C(=O)N[C@@H](CCCCN)C(=O)N[C@@H](C)C(=O)NCC(=O)N[C@H]1CSSC[C@@H](C(=O)O)NC(=O)[C@H](CO)NC(=O)[C@H]([C@@H](C)O)NC(=O)[C@H](Cc2ccc(O)cc2)NC(=O)[C@H]([C@@H](C)O)NC(=O)[C@H](CCCCN)NC(=O)[C@@H](Cc2c[nH]c3ccccc23)NC(=O)[C@H](Cc2ccccc2)NC(=O)[C@H](Cc2ccccc2)NC(=O)[C@H](CC(N)=O)NC(=O)[C@H](CCCCN)NC1=O [Bio-S28, Biotinyl-NH-(Leu8, D-Trp22, Tyr25)SRIF28] (Biotin-SANSNPALAPRERKAGCKNFF[dW]KTYTSC-OH; disulfide 17-28 (inferred); C-terminus assumed) | 0.3 nM |  |
| C[C@H](NC(=O)CCCCCNC(=O)CCCCCNC(=O)CCCC[C@@H]1SC[C@@H]2NC(=O)N[C@@H]21)C(=O)NCC(=O)N[C@H]1CSSC[C@@H](C(=O)O)NC(=O)[C@H](CO)NC(=O)[C@H]([C@@H](C)O)NC(=O)[C@H](Cc2ccc(O)cc2)NC(=O)[C@H]([C@@H](C)O)NC(=O)[C@H](CCCCN)NC(=O)[C@H](Cc2c[nH]c3ccccc23)NC(=O)[C@H](Cc2ccccc2)NC(=O)[C@H](Cc2ccccc2)NC(=O)[C@H](CC(N)=O)NC(=O)[C@H](CCCCN)NC1=O [Bio-12C-S14, Biotinyl-[NH-(CH2)5 -CO]2 -NH-(Tyr11)SRIF14] ({Biotin-Ahx-Ahx}-AGCKNFFWKTYTSC-OH; disulfide 3-14 (inferred); C-terminus assumed) | 2 nM |  |
| Biotinyl-NH-SRIF14 [Biotinyl-NH-S14] |  | about 1.5% |
| C[C@H](NC(=O)CCCCCNC(=O)CCCC[C@@H]1SC[C@@H]2NC(=O)N[C@@H]21)C(=O)NCC(=O)N[C@H]1CSSC[C@@H](C(=O)O)NC(=O)[C@H](CO)NC(=O)[C@H]([C@@H](C)O)NC(=O)[C@H](Cc2ccc(O)cc2)NC(=O)[C@H]([C@@H](C)O)NC(=O)[C@H](CCCCN)NC(=O)[C@H](Cc2c[nH]c3ccccc23)NC(=O)[C@H](Cc2ccccc2)NC(=O)[C@H](Cc2ccccc2)NC(=O)[C@H](CC(N)=O)NC(=O)[C@H](CCCCN)NC1=O [Bio-6C-S14, Biotinyl-[NH--(CH2)5 --CO]--NH-(Tyr11)SRIF14] ({Biotin-Ahx}-AGCKNFFWKTYTSC-OH; disulfide 3-14) | 2 nM |  |
| C[C@H](N)C(=O)NCC(=O)N[C@H]1CSSC[C@@H](C(=O)O)NC(=O)[C@H](CO)NC(=O)[C@H]([C@@H](C)O)NC(=O)[C@H](Cc2ccccc2)NC(=O)[C@H]([C@@H](C)O)NC(=O)[C@H](CCCCN)NC(=O)[C@H](Cc2c[nH]c3ccccc23)NC(=O)[C@H](Cc2ccccc2)NC(=O)[C@H](Cc2ccccc2)NC(=O)[C@H](CC(N)=O)NC(=O)[C@H](CCCCN)NC1=O [S14, reference compound] | 0.2 nM |  |
